From PubChem BioAssay (NCI)
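These data come from cells grown in 96-well plates and exposed to compound for 48 hours at five concentrations. At the GI50, growth is halved. At the TGI there is no net growth.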

What was measured:
Assay in all cases: DTP human tumour cell line panel, 48 h
COLO 205 colon = test system: COLO 205 colon
HCT-15 colon = test system: HCT-15 colon
HT29 colon = test system: HT29 colon
IGROV1 ovarian = test system: IGROV1 ovarian
M14 melanoma = test system: M14 melanoma
NCI-H226 lung = test system: NCI-H226 lung
OVCAR-4 ovarian = test system: OVCAR-4 ovarian
OVCAR-5 ovarian = test system: OVCAR-5 ovarian
SNB-75 CNS = test system: SNB-75 CNS
RXF 393 renal = test system: RXF 393 renal

Row | Compound | GI50 (COLO 205 colon) | TGI (COLO 205 colon) | GI50 (HCT-15 colon) | TGI (HCT-15 colon) | GI50 (HT29 colon) | TGI (HT29 colon) | GI50 (IGROV1 ovarian) | TGI (IGROV1 ovarian) | GI50 (M14 melanoma) | TGI (M14 melanoma) | GI50 (NCI-H226 lung) | TGI (NCI-H226 lung) | GI50 (OVCAR-4 ovarian) | TGI (OVCAR-4 ovarian) | GI50 (OVCAR-5 ovarian) | TGI (OVCAR-5 ovarian) | GI50 (SNB-75 CNS) | TGI (SNB-75 CNS) | TGI (RXF 393 renal) | GI50 (RXF 393 renal)
1 | COc1ccc2c(c1)C(=O)c1c-2c(NCCN(C)C)nc2ccccc12 | 4.51 µM | 19.3 µM | 2.72 µM | 16.6 µM | 4.41 µM | 15.5 µM | 1.86 µM | 7.14 µM | 15.8 µM | 29.2 µM | 16.2 µM | 32.5 µM | 12.2 µM | 36.3 µM | 4.23 µM | 16 µM |  |  |  | 
2 | COc1ccc(C2CC(=O)c3c(O)c(OC)c(OC)c(OC)c3O2)cc1O (configuration not stated) | 6.63 µM | 32.5 µM | 0.0459 µM | > 100 µM | 3.4 µM | > 64.5 µM | 0.976 µM | > 100 µM | 0.0515 µM | > 100 µM | 14.1 µM | > 100 µM | 3.78 µM | > 100 µM | > 100 µM | > 100 µM | 0.0358 µM | > 100 µM |  | 
3 | CSC1(CC(=O)N2CCCCC2)C(=O)Nc2ccccc21 (configuration not stated) |  | > 100 µM |  | > 100 µM |  | > 100 µM |  | > 100 µM |  | > 100 µM |  | > 100 µM |  | > 100 µM |  | > 100 µM |  | > 100 µM |  | 
4 | CC(C)c1ccc2nc3ccc(C(=O)NCCN4CCN(c5ccccc5)CC4)cn3c(=O)c2c1 |  | > 100 µM |  | > 100 µM |  | > 100 µM |  | > 100 µM |  | > 100 µM |  | > 100 µM |  | > 100 µM |  | > 100 µM |  |  |  | 
5 | COc1ccc(C2C3=C(COC3=O)Oc3cc4c(cc32)OCO4)cc1 (configuration not stated) |  | 63.6 µM |  | > 100 µM |  | 22.5 µM |  | > 100 µM |  | > 100 µM |  |  |  | > 100 µM |  |  |  | 39.7 µM | > 100 µM | 
6 | O=C(C=Nc1ccccc1C(=O)[O-])c1cccs1.O=C(C=Nc1ccccc1C(=O)[O-])c1cccs1.[Zn+2] |  | > 100 µM |  | > 100 µM |  | > 100 µM |  | 76 µM |  | > 100 µM |  |  |  |  |  | 71.9 µM |  | 35.3 µM |  | 
7 | COC1CC(OC)C(O)C(CO)O1 (configuration not stated) |  |  |  | > 100 µM |  | > 100 µM |  | > 100 µM |  | > 100 µM |  |  |  | > 100 µM |  | > 100 µM |  | > 100 µM | > 100 µM | 
8 | COc1cc2c3c(n(CCCN4CCCC(O)C4)c(=O)c2cc1OC)-c1cc2c(cc1C3=O)OCO2 (configuration not stated) | 2.51 µM | 6.33 µM | 0.709 µM | 1.7 µM | 0.731 µM | 9.94 µM | 0.836 µM | 8.87 µM | 0.0297 µM | 0.972 µM | 1.42 µM | 4.31 µM | 1.07 µM | 2.68 µM | 0.931 µM | 1.71 µM | 0.546 µM | 1.57 µM |  | 
9 | O=C(O)c1ccccc1Nc1ccc2nnc(-c3ccncc3)n2n1 | 13 µM | 30.8 µM | 6.88 µM | 66.3 µM | 5.66 µM | 24.2 µM | 5.29 µM | 22.9 µM | 7.03 µM | 40.9 µM |  |  |  |  | 17.4 µM | 79.3 µM | 12.2 µM | 25 µM | 9.98 µM | 3.18 µM
10 | COC(=O)C1=C(C)N(NC(N)=O)C(C)(O)C12CCOC2=O (configuration not stated) |  | > 100 µM |  | > 100 µM |  | > 100 µM |  | > 100 µM |  | > 100 µM |  | > 100 µM |  | > 100 µM |  | > 100 µM |  |  |  | 
11 | CC(C)c1cccc(C(C)C)c1NC(=O)CCC(=O)NN |  | 36.1 µM |  | 37.7 µM |  | > 100 µM |  | > 100 µM |  | > 100 µM |  | > 100 µM |  | > 100 µM |  | > 100 µM |  | > 100 µM |  | 
12 | C/C=C/C1=CN2C(=O)c3cc(OC4OC(C)C(NC)C(C)(O)C4O)c(C)c(O)c3N=C[C@@H]2C1 (some centres not stated) |  |  |  | 11 µM |  | 10.2 µM |  |  | 0.0589 µM | 0.213 µM | 0.124 µM |  |  | 20.7 µM |  | 2.92 µM |  |  |  | 
13 | Nc1ncnc2c1ncn2C1OC(COC2C(CO)OC(OC(C(=O)O)C(O)C(OP(=O)(O)O)C(O)C(=O)O)C(O)C2O)C(O)C1O (configuration not stated) |  | > 100 µM |  | > 100 µM |  | > 100 µM |  | > 100 µM |  | > 100 µM |  | > 100 µM |  | > 100 µM |  | > 100 µM |  | > 100 µM |  | 
14 | c1ccc2c3c(ccc2c1)-c1c(ccc2c(NCCCCN4CCCCC4)cccc12)C3 | 2.33 µM | 6.77 µM | 1.86 µM | 3.79 µM |  |  | 2.09 µM | 8.03 µM | 1.94 µM | 3.35 µM |  |  | 2.81 µM | > 31 µM | 1.31 µM | 2.88 µM |  |  |  | 
15 | COc1cc(/C=C2\C[C@H]3[C@@H]4CC=C5C[C@@H](OC(C)=O)CC[C@]5(C)[C@H]4CC[C@]3(C)[C@H]2OC(C)=O)ccc1OCCN1CCCCC1 | 16.3 µM | > 50 µM | 7.59 µM | 15.8 µM | 23.2 µM | > 50 µM | 40 µM | > 50 µM | 2.46 µM | 10 µM | > 50 µM | > 50 µM |  |  | 23.4 µM | > 50 µM |  |  | 18.8 µM | 6.94 µM
16 | CC1=CC(=O)c2ccc(C)cc2C1=O |  | 31.1 µM |  | 27.3 µM |  | > 100 µM |  | 30.8 µM |  | 30.8 µM |  | 39.5 µM |  | 52.5 µM |  | 35.4 µM |  |  |  | 
